Each molecule was assayed against T1, Bcl-2-like protein 10 [11-204] (Homo sapiens, UniProt Q9HD36) (assay: Bcl-B Bim peptide interaction hit potency – biochemical, dose response, multiplexed HTS hits, confirmation (AID 2077)). Conditions: not given.
T1 construct: 11-204
T1 sequence (Q9HD36 whole entry): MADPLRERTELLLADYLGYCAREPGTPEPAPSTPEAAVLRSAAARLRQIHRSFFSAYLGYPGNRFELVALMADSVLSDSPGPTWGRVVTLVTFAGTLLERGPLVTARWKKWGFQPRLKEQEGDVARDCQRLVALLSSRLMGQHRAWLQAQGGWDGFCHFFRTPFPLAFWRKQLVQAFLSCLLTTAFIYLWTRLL
For `O=C(Nc1nnc(COc2ccc(Cl)cc2)s1)c1ccco1` [N-[5-[(4-chloranylphenoxy)methyl]-1,3,4-thiadiazol-2-yl]furan-2-carboxamide], the EC50 was 1.46 µM.
Molecule `O=C1C(=Cc2ccco2)NC(=S)N1c1ccccc1` [(5E)-5-(furan-2-ylmethylidene)-3-phenyl-2-sulfanylideneimidazolidin-4-one] has an EC50 of 2.9 µM.
With `S=c1[nH]cc(-c2ccccc2)n1-c1ccccc1` [SMR000196363] the EC50 was 0.32 µM.
Molecule `O=c1c2c(n3nnnc3n1Cc1ccccc1)-c1ccccc1CC21CCCC1` [MLS000030575] has an EC50 of 3.57 µM.
Molecule `O=C1NC(=O)C2(Cc3c(nc4ccccn4c3=O)N3CCCCCC32)C(=O)N1Cc1ccccc1` (centres undefined) [MLS000083668] has an EC50 of 6.4 µM.
For `CCN(CC)c1ccc(NC(=O)c2ccccc2Br)cc1S(=O)(=O)Nc1ccccc1OC`, the EC50 was 8.66 µM.
`COc1ccc(N2C(=O)C(Cl)=C(Oc3cccc(OC)c3)C2=O)cc1` [3-chloro-4-(3-methoxyphenoxy)-1-(4-methoxyphenyl)-1H-pyrrole-2,5-dione] was tested, and the EC50 was 0.61 µM.
In the case of `CC(=O)Nc1ccc(-n2cc(-c3ccccc3)[nH]c2=S)cc1` [MLS001001946], the EC50 is reported as 0.92 µM.
Molecule `Cc1ccc(C=NNC(=O)CSc2nnc(-c3ccc(Cl)cc3)n2-c2ccccc2)o1` [SMR000218122] has an EC50 of 16.4 µM.

Same assay, conditions: inactive by the depositor's call
With `Clc1nc(NCc2cccnc2)nc(N2CCOCC2)n1` [MLS000121154] the EC50 was 13.5 µM.
`COc1ccccc1-n1c(-c2ccccc2)c[nH]c1=S` [MLS001007615] was tested, and the EC50 was 24.4 µM.
For `O=C(NCc1ccccc1)c1ccc2nc(-c3ccco3)c(-c3ccco3)nc2c1` [2,3-bis(furan-2-yl)-N-(phenylmethyl)quinoxaline-6-carboxamide], the EC50 was 31.6 µM.
Molecule `Cc1cc(-c2cc(-c3ccc(Cl)cc3)nc(N)c2C#N)co1` [2-azanyl-6-(4-chlorophenyl)-4-(5-methylfuran-3-yl)pyridine-3-carbonitrile] has an EC50 of 15.2 µM.
For `O=c1[nH]c(O)c(Cc2ccc(-c3cc(Cl)ccc3[N+](=O)[O-])o2)c(=O)[nH]1`, the EC50 was 36.5 µM.
